Source: US6218378A, “Anti-tumor agents comprising pyridyl-substituted metal-diphosphine complex” (priority 1994, dated 2001)
“And” between values parts separate entries of the source, which are not always exact repeats. Equal entries are not always repeated. Where two headings read alike, the source gives them in different places.

Assays:
41M-cisR = experiment: cytotoxicity assay, sulforhodamine B; format: cell-based, human; conditions: 96 hrs, mean ± SD or individual values when n<3
Description: (§1) In Table 2, reference is made to cell lines 41M, 41M-cisR, SKOV-3, CH1 and CH1-cisR.
(§2) J. Cancer 69 1-7. The characteristics of the cell line pairs CH1/CH1 cisR, 41M/41McisR and 41M/SKOV3 are described in Table 3.
(§3) The cytotoxicity assay used sulforhodamine B which stains the basic amino acids. Cells (5000 or 2500 for SKOV-3) were seeded into 96 well microtitre plates (Linbro, Flow Laboratories Inc., USA) in 0.1 ml of medium. After an overnight incubation, the metal phosphine compounds were dissolved in 0.9% NaCl or ethanol and diluted with medium, were added at concentrations ranging from 0.005 to 50 μM to quadruplicate wells. After 96 hrs incubation, the medium was removed and cells were fixed in 0.2 ml of cold 10% (w/v) trichloroacetic acid (May & Baker Ltd., Dagenham, England) for 30 mins at 4° C. The plates were washed five times with tap water. Then 0.1 ml of 0.4% (w/v) sulforhodamine B (Sigma Chemical Co., St. Louis, USA) dissolved in 1% acetic acid (Ajax Chemicals, Australia) was added to the wells and left to stand at room temperature for 15 mins. The plates were then washed five times with 1% acetic acid and left to dry overnight. The next morning, 0.1 ml of 10 mM Tris buffer (Sigma Chemical Co., St. Louis, USA) was then added to each plate to solubilise the dye. Absorbance was read at a wavelength of 570 nm using a 96 well plate reader Dynatech MR 5000 plate reader. Absorbance of treatment cells was expressed as a percentage of positive (drug-free) controls. The results were plotted as percentage growth versus drug concentration.

SKOV-3 = experiment: cytotoxicity assay, sulforhodamine B; format: cell-based, human; conditions: 96 hrs, mean ± SD or individual values when n<3
Description: as §1, §2, §3

41M = experiment: cytotoxicity assay, sulforhodamine B; format: cell-based, human; conditions: 96 hrs, mean ± SD or individual values when n<3
Description: as §1, §2, §3

CH1-cisR = experiment: cytotoxicity assay, sulforhodamine B; format: cell-based, human; conditions: 96 hrs, mean ± SD or individual values when n<3
Description: as §1, §2, §3

CH1 = experiment: cytotoxicity assay, sulforhodamine B; format: cell-based, human; conditions: 96 hrs, mean ± SD or individual values when n<3
Description: as §1, §2, §3

[1] = system: 41M, 41M-cisR, SKOV-3, CH1, CH1-cisR; experiment: growth inhibition of cisplatin-sensitive and -resistant ovarian cancer cell lines (Table 2, FIG. 5); format: cell-based, human
Text: (§4) The sensitive CH1 cell line was established from a patient with drug-sensitive disease and its resistant variant (CH1-cisR) was generated by prolonged in vitro exposure to cisplatin during which it acquired more efficient DNA repair as described in Kelland et al., 1992, Cancer Research 52 3857-3864. The sensitive 41M cell line was also established from a patient with a sensitive tumor and its resistant variant (41M-cisR) was generated in the same way but acquired decreased uptake across the cell membrane (Kelland et al., 1992, supra). The intrinsically-resistant SKOV-3 ovarian carcinoma cell line has high glutathione levels as described in Mistry et al., 1991, Brit. J. Cancer 64 215-220 and reduced levels of bi-functional cisplatin-DNA lesions as described in McKeage et al., 1994, Brit. J. Cancer 69 1-7. The characteristics of the cell line pairs CH1/CH1 cisR, 41M/41McisR and 41M/SKOV3 are described in Table 3.
as §3, with “concentration. The drug concentration resulting in a 50% growth inhibition was termed the IC50. The passage numbers used for the cytotoxicity assay from each cell line were, CH1 passages 50-58, CH1 cis-R passages 77-83, 41M passages 50-63, 41M cisR 81-92 and SKOV-3 passages 106-128.” for “concentration.”

HeLa = experiment: cell survival after drug treatment ([methyl-3H]-thymidine); format: cell-based, human; conditions: for IC50: HeLa, mean ± SD or individual values when n<3, 5-7 days
Text: (§5) In FIGS. 1-4 and Table 1, reference is made to the cell lines HeLa, HeLa-S1a, JAM, CI-80-13S and MM96.
(§6) The origins of the human melanoma cell line MM96 has been described in Whitehead et al., 1973, Pigment Cell 1 383-389. The cell line JAM is described in Ward et al., 1987, Cancer Res. 47 2662-2667. The origin of the ovarian tumour line CI-80-13S has been described in Bertoncello et al., 1985, Aust. J. Exp. Biol. Med. Sci. 63 241-243. The origin of the cervical carcinoma cell line HeLa has been described in Maynard et al., 1986, Cancer Res. 46 5009-5093. The subclone HeLa-S1a was derived by stably transfecting HeLa with PAI-2 cDNA described in Schleuning et al., 1987, Mol. Cell. Biol. 7 4564-4567 in the sense orientation under the control of the cyto-megalovirus (CMV) promoter. The stably infected subclone was isolated following G418 selection and expression of the PAI-2 transgene characterised by immunoblot analysis and quantitated by ELISA. All of these cell lines have been used before for carrying out cell survival assays referred to in FIGS. 1-4. Cells were cultured at 37° in 5% CO2 /air in Roswell Park Memorial Institute medium 1640 containing 5% foetal calf serum, 100 μg/ml streptomycin, 100 IU/ml penicillin, 1 mM pyruvate, 50 μM nicotinamide and 3 mM HEPES.
(§7) Cells were seeded in microtitre plates (lowest number for fastest growing cells: 1000 HeLa, 2000 MM96, […] CI-80-13S cells per 6 mm well in 100 μl), normally but not necessarily allowed to attach overnight, then 5 dilutions of the drug were added to duplicate wells. After an overnight incubation to equilibrate the pH, the lids were quickly taped around the edge to prevent evaporation. The plates were incubated for 5-7 days, until the controls were nearly confluent. Cell growth/morphology was scored at each dose visually (inverted microscope). The medium was then replaced by 50 μl fresh medium containing 2 u/Ci/ml [methyl-3H]-thymidine (5 Ci/mmol; Radiochemical Centre, Amersham, Bucks., U.K.) and incubated for 2-4 hr. The cells were washed with PBS (0.1 M NaCl, 50 mM phosphate, pH 7.2), detached with 100 μl of PBS containing 0.2 mg/ml trypsin and 10 mM EDTA, and washed onto a glass fibre GF/a filter mat with water using a cell harvester. Later, wells were checked under the microscope to ensure complete detachment and washout. Radioactivity was determined in an LKB Beta Plate counter and the results plotted as log % control cpm versus dose. The ID50 (dose required to give 50% survival) was interpolated from this survival curve.

MM96 = experiment: as above; format: cell-based, human; conditions: for IC50: MM96L, mean ± SD or individual values when n<3, 5-7 days
Text: as §5, §6, §7

CI-80-13S = experiment: as above; format: cell-based, human; conditions: for IC50: CI-80-13S, mean ± SD or individual values when n<3, 5-7 days
Text: as §5, §6, §7

HeLa-S1a = experiment: as above; format: cell-based, human; conditions: for IC50: HeLa-S1a, mean ± SD or individual values when n<3, 5-7 days
Text: as §5, §6, §7

[2] = system: four human tumour cell lines (MM96, HeLa, CI-80-13S, HeLa-S1a); experiment: cytotoxicity against four human tumour cell lines in vitro (FIGS. 3 and 4); format: cell-based; conditions: for cytotoxicity (FIGS. 3 and 4): all four cell lines; for selectivity against the cisplatin-resistant lines: compared with formula (I) or (V), R=4-pyridyl and 3-pyridyl
Text: as §6, §7
We have tested the following compounds of formula (III) against the four human tumour cell lines described above, i.e.: […]

[3] = system: CI-80-13S vs JAM; HeLa-S1a vs HeLa; experiment: relative cytotoxic potency in cisplatin-resistant and non-resistant cells (Table 1); format: cell-based, human; conditions: CI80-13-S vs JAM; HeLaS1a vs HeLa
Text: as §6, with “All of these cell lines have been used before for carrying out cell survival assays referred to in FIGS. 1-4. Cells were cultured at 37° in 5% CO2 /air in Roswell Park Memorial Institute medium 1640 containing 5% foetal calf serum, 100 μg/ml streptomycin, 100 IU/ml penicillin, 1 mM pyruvate, 50 μM nicotinamide and 3 mM HEPES.” left out
Cells were seeded in microtitre plates (lowest number for fastest growing cells: 1000 HeLa, 2000 MM96, […] CI-80-13S cells per 6 mm well in 100 μl), normally but not necessarily allowed to attach overnight, then 5 dilutions of the drug were added to duplicate wells. […] Cell growth/morphology was scored at each dose visually (inverted microscope). […] Radioactivity was determined in an LKB Beta Plate counter and the results plotted as log % control cpm versus dose. […]

JAM = experiment: cell survival after drug treatment ([methyl-3H]-thymidine); format: cell-based, human; conditions: mean ± SD or individual values when n<3, 5-7 days
Text: as §5, §6, §7

cisplatin cytotoxicity [4] = conditions: in vivo; cited from earlier work
cisplatin cytotoxicity [5] = conditions: in vitro; cited from earlier work
human tumour cell lines = experiment: selectivity of cytotoxicity over all cell lines evaluated (Tables 1 and 2); format: cell-based
Text: as §6, §7, §4
The cytotoxicity assay used sulforhodamine B which stains the basic amino acids. Cells (5000 or 2500 for SKOV-3) were seeded into 96 well microtitre plates (Linbro, Flow Laboratories Inc., USA) in 0.1 ml of medium. After an overnight incubation, the metal phosphine compounds were dissolved in 0.9% NaCl or ethanol and diluted with medium, were added at concentrations ranging from 0.005 to 50 μM to quadruplicate wells. After 96 hrs incubation, the medium was removed and cells were fixed in 0.2 ml of cold 10% (w/v) trichloroacetic acid (May & Baker Ltd., Dagenham, England) for 30 mins at 4° C. The plates were washed five times with tap water. […]

[Au+].[Au+].[Cl-].[Cl-].c1cncc(P(CCP(c2cccnc2)c2cccnc2)c2cccnc2)c1.c1cncc(P(CCP(c2cccnc2)c2cccnc2)c2cccnc2)c1 [[Au2 (d3pype)2 Cl2]]
IC50 (41M-cisR): 47 µM
IC50 (SKOV-3): 71 ± 12 µM
IC50 (41M): 70 ± 12 µM
IC50 (CH1-cisR): 0.5 ± 0.1 µM
IC50 (CH1): 0.9 ± 0.4 µM
sensitivity of cisplatin resistant cells versus non-resistant cells ([1]; 41M/41M-cisR and CH1/CH1-cisR pairs): consistently more sensitive
cytotoxicity (FIGS. 1 and 2) (HeLa; HeLa cervical carcinoma in vitro): inactive
IC50 (HeLa): 38 µM
IC50 (MM96): 56 µM
cytotoxicity (FIGS. 1 and 2) (MM96; MM96 melanoma in vitro): inactive
cytotoxicity (FIGS. 1 and 2) (CI-80-13S; CI-80-13S ovarian in vitro): selectively cytotoxic
IC50 (CI-80-13S): 0.4 µM
cytotoxicity (FIGS. 1 and 2) (HeLa-S1a; HeLa-S1a in vitro): selectively cytotoxic
IC50 (HeLa-S1a): 0.4 µM

Cl.c1cncc([P+]2(c3cccnc3)CC[P+](c3cccnc3)(c3cccnc3)[Cu-3]23[P+](c2cccnc2)(c2cccnc2)CC[P+]3(c2cccnc2)c2cccnc2)c1 [[Cu(d3pype)2]Cl]
IC50 (41M-cisR): 30 µM
IC50 (SKOV-3): > 50 µM
IC50 (41M): > 50 µM
IC50 (CH1): 3 µM

Cl.c1cncc([P+]2(c3cccnc3)CC[P+](c3cccnc3)(c3cccnc3)[Au-3]23[P+](c2cccnc2)(c2cccnc2)CC[P+]3(c2cccnc2)c2cccnc2)c1 [[Au(d3pype)2]Cl]
IC50 (41M-cisR): 11 µM
IC50 (SKOV-3): > 25 µM
IC50 (41M): > 25 µM
IC50 (CH1-cisR): 10 µM
IC50 (CH1): 1.5 µM

O=[N+]([O-])[O-].O=[N+]([O-])[O-].[Ag+].[Ag+].c1ccc(P(CCP(c2ccccn2)c2ccccn2)c2ccccn2)nc1.c1ccc(P(CCP(c2ccccn2)c2ccccn2)c2ccccn2)nc1.c1ccc(P(CCP(c2ccccn2)c2ccccn2)c2ccccn2)nc1.c1ccc(P(CCP(c2ccccn2)c2ccccn2)c2ccccn2)nc1 [[Ag2 (d2pype)4](NO3)2]
cytotoxicity (FIGS. 3 and 4) [2]: cytotoxic to all four cell lines
selectivity against the cisplatin-resistant lines [2]: do not show the same selectivity

[Cl-].[Cl-].c1ccc([P+]2(c3ccccn3)CC[P+](c3ccccn3)(c3ccccn3)[Au-3]23[P+](c2ccccn2)(c2ccccn2)CC[P+](c2ccccn2)(c2ccccn2)[Au-3]2([P+](c4ccccn4)(c4ccccn4)CC[P+]2(c2ccccn2)c2ccccn2)[P+](c2ccccn2)(c2ccccn2)CC[P+]3(c2ccccn2)c2ccccn2)nc1 [[Au2 (d2pype)4]Cl2]
IC50 (41M-cisR): 0.6 µM
IC50 (SKOV-3): 1.1 µM
IC50 (41M): 0.7 µM
cytotoxicity (FIGS. 3 and 4) [2]: cytotoxic to all four cell lines
selectivity against the cisplatin-resistant lines [2]: do not show the same selectivity
selectivity and cytotoxicity in ovarian cancer cell-lines (FIG. 5) [1]: cytotoxic to the 41M pair and the resistant SKOV-3
sensitivity of cisplatin-resistant cell lines versus non-resistant cells [3]: more sensitive
IC50 (HeLa): 0.24 ± 0.1 µM
IC50 (MM96): 0.09 µM
IC50 (JAM): 0.1 µM and 0.39 µM
IC50 (CI-80-13S): 0.06 ± 0.03 µM
IC50 (HeLa-S1a): 0.06 µM

Cc1cc(N)c2ccccc2[n+]1CCCCCCCCCC[n+]1c(C)cc(N)c2ccccc21 [delqualinium]
enhancement of cisplatin cytotoxicity (cisplatin cytotoxicity [4]): enhance cisplatin cytotoxicity
enhancement of cisplatin cytotoxicity (cisplatin cytotoxicity [5]): enhance cisplatin cytotoxicity

[Au+].[Cl-].c1ccc(P(CCP(c2ccccc2)c2ccccn2)c2ccccn2)cc1.c1ccc(P(CCP(c2ccccc2)c2ccccn2)c2ccccn2)cc1 (stereo not drawn) [[Au(2-pyppe)2]Cl]
IC50 (41M-cisR): 0.1 µM
IC50 (SKOV-3): 0.2 µM
IC50 (41M): 0.1 µM
selectivity and cytotoxicity in ovarian cancer cell-lines (FIG. 5) ([1]; 96h incubation): cytotoxic to the 41M pair and the resistant SKOV-3
number of cell lines against which cytotoxic (human tumour cell lines): cytotoxic to all the cell lines evaluated
degree of selectivity (human tumour cell lines; Tables 1 and 2): the least selectivity
